Data as given in ChEMBL document CHEMBL1152860, “Synthesis and antiproliferative activity of 3-amino-N-phenyl-1H-indazole-1-carboxamides” (2009).

Legend:
Type in all cases: functional
[1] = test system: CAKI-1; experiment: Growth inhibition of human Caki1 cells after 48 hrs by SRB assay; settings: CAKI-1, 48 h
[2] = test system: RPMI-8226; experiment: Growth inhibition of human RPMI8226 cells after 48 hrs by SRB assay; settings: RPMI-8226, 48 h
[3] = test system: OVCAR-5; experiment: Growth inhibition of human OVCAR5 cells after 48 hrs by SRB assay; settings: OVCAR-5, 48 h
[4] = test system: SK-MEL-5; experiment: Growth inhibition of human SK-MEL-5 cells after 48 hrs by SRB assay; settings: SK-MEL-5, 48 h
[5] = test system: MDA-MB-231; experiment: Growth inhibition of human MDA-MB-231 cells after 48 hrs by SRB assay; settings: MDA-MB-231, 48 h
[6] = test system: SF-295; experiment: Growth inhibition of human SF295 cells after 48 hrs by SRB assay; settings: SF-295, 48 h
[7] = test system: NCI-H522; experiment: Growth inhibition of human NCI-H522 cells after 48 hrs by SRB assay; settings: NCI-H522, 48 h
[8] = test system: NCI-H460; experiment: Growth inhibition of human NCI-H460 cells after 48 hrs by SRB assay; settings: NCI-H460, 48 h
[9] = test system: HOP-92; experiment: Growth inhibition of human HOP92 cells after 48 hrs by SRB assay; settings: HOP-92, 48 h
[10] = test system: Malme-3M; experiment: Growth inhibition of human MALME-3M cells after 48 hrs by SRB assay
[11] = test system: U-251; experiment: Growth inhibition of human U251 cells after 48 hrs by SRB assay; settings: U-251, 48 h
[12] = test system: UACC-62; experiment: Growth inhibition of human UACC62 cells after 48 hrs by SRB assay; settings: UACC-62, 48 h
[13] = test system: MOLT-4; experiment: Growth inhibition of human MOLT4 cells after 48 hrs by SRB assay; settings: MOLT-4, 48 h
[14] = test system: DU-145; experiment: Growth inhibition of human DU145 cells after 48 hrs by SRB assay; settings: DU-145, 48 h
[15] = test system: RXF 393; experiment: Growth inhibition of human […] cells after 48 hrs by SRB assay; settings: RXF 393, 48 h
[16] = test system: SN12C; experiment: Growth inhibition of human SN12C cells after 48 hrs by SRB assay
[17] = test system: CCRF-CEM; experiment: Growth inhibition of human CCRF-CEM cells after 48 hrs by SRB assay
[18] = test system: UACC-257; experiment: Growth inhibition of human UACC257 cells after 48 hrs by SRB assay; settings: UACC-257, 48 h
[19] = test system: SK-MEL-2; experiment: Growth inhibition of human SK-MEL-2 cells after 48 hrs by SRB assay; settings: SK-MEL-2, 48 h
[20] = test system: PC-3; experiment: Growth inhibition of human PC3 cells after 48 hrs by SRB assay; settings: PC-3, 48 h
[21] = test system: NCI/ADR-RES; experiment: Growth inhibition of human NCI/ADR-RES cells after 48 hrs by SRB assay
[22] = test system: HT-29; experiment: Growth inhibition of human HT-29 cells after 48 hrs by SRB assay; settings: HT-29, 48 h
[23] = test system: SNB-19; experiment: Growth inhibition of human SNB19 cells after 48 hrs by SRB assay; settings: SNB-19, 48 h
[24] = test system: NCI-H322M; experiment: Growth inhibition of human NCI-H322M cells after 48 hrs by SRB assay
[25] = test system: SK-MEL-28; experiment: Growth inhibition of human SK-MEL-28 cells after 48 hrs by SRB assay; settings: SK-MEL-28, 48 h
[26] = test system: UO-31; experiment: Growth inhibition of human UO31 cells after 48 hrs by SRB assay; settings: UO-31, 48 h
[27] = test system: A549; experiment: Growth inhibition of human A549 cells after 48 hrs by SRB assay; settings: A549, 48 h
[28] = test system: SF-539; experiment: Growth inhibition of human SF539 cells after 48 hrs by SRB assay; settings: SF-539, 48 h
[29] = test system: SNB-75; experiment: Growth inhibition of human SNB75 cells after 48 hrs by SRB assay; settings: SNB-75, 48 h
[30] = test system: SK-OV-3; experiment: Growth inhibition of human SKOV3 cells after 48 hrs by SRB assay; settings: SK-OV-3, 48 h
[31] = test system: T47D; experiment: Growth inhibition of human T47D cells after 48 hrs by SRB assay
[32] = test system: ACHN; experiment: Growth inhibition of human ACHN cells after 48 hrs by SRB assay
[33] = test system: M14; experiment: Growth inhibition of human M14 cells after 48 hrs by SRB assay; settings: M14, 48 h
[34] = test system: HL-60(TB); experiment: Growth inhibition of human HL-60(TB) cells after 48 hrs by SRB assay; settings: HL-60, 48 h
[35] = test system: OVCAR-4; experiment: Growth inhibition of human OVCAR4 cells after 48 hrs by SRB assay; settings: OVCAR-4, 48 h
[36] = test system: TK-10; experiment: Growth inhibition of human TK10 cells after 48 hrs by SRB assay; settings: TK-10, 48 h
[37] = test system: NCI-H23; experiment: Growth inhibition of human NCI-H23 cells after 48 hrs by SRB assay; settings: NCI-H23, 48 h
[38] = test system: HCT-116; experiment: Growth inhibition of human HCT116 cells after 48 hrs by SRB assay; settings: HCT-116, 48 h
[39] = test system: SF-268; experiment: Growth inhibition of human SF268 cells after 48 hrs by SRB assay; settings: SF-268, 48 h
[40] = test system: OVCAR-3; experiment: Growth inhibition of human OVCAR-3 cells after 48 hrs by SRB assay; settings: OVCAR-3, 48 h
[41] = test system: SR; experiment: Growth inhibition of human SR cells after 48 hrs by SRB assay
[42] = test system: MDA-MB-435; experiment: Growth inhibition of human MDA-MB-435 cells after 48 hrs by SRB assay; settings: MDA-MB-435, 48 h
[43] = test system: OVCAR-8; experiment: Growth inhibition of human OVCAR8 cells after 48 hrs by SRB assay; settings: OVCAR-8, 48 h
[44] = test system: A498; experiment: Growth inhibition of human A498 cells after 48 hrs by SRB assay; settings: A498, 48 h
[45] = test system: KM12; experiment: Growth inhibition of human KM12 cells after 48 hrs by SRB assay; settings: KM12, 48 h
[46] = test system: K562; experiment: Growth inhibition of human K562 cells after 48 hrs by SRB assay; settings: K562, 48 h
[47] = test system: NCI-H226; experiment: Growth inhibition of human NCI-H226 cells after 48 hrs by SRB assay; settings: NCI-H226, 48 h
[48] = test system: SW-620; experiment: Growth inhibition of human SW620 cells after 48 hrs by SRB assay; settings: SW-620, 48 h
[49] = test system: MCF7; experiment: Growth inhibition of human MCF7 cells after 48 hrs by SRB assay; settings: MCF7, 48 h
[50] = test system: HCT-15; experiment: Growth inhibition of human HCT15 cells after 48 hrs by SRB assay; settings: HCT-15, 48 h
[51] = test system: EKVX; experiment: Growth inhibition of human EKVX cells after 48 hrs by SRB assay
[52] = test system: 786-0; experiment: Growth inhibition of human 786-0 cells after 48 hrs by SRB assay; settings: 786-0, 48 h
[53] = test system: HCC 2998; experiment: Growth inhibition of human HCC2998 cells after 48 hrs by SRB assay; settings: HCC 2998, 48 h
[54] = test system: IGROV-1; experiment: Growth inhibition of human IGROV1 cells after 48 hrs by SRB assay; settings: IGROV-1, 48 h
[55] = test system: LOX IMVI; experiment: Growth inhibition of human LOXIMVI cells after 48 hrs by SRB assay
[56] = test system: BT-549; experiment: Growth inhibition of human BT549 cells after 48 hrs by SRB assay; settings: BT-549, 48 h
[57] = test system: COLO 205; experiment: Growth inhibition of human COLO205 cells after 48 hrs by SRB assay; settings: COLO 205, 48 h
[58] = Growth inhibition of human Hs 578T cells after 48 hrs by SRB assay
[59] = test system: HOP-62; experiment: Growth inhibition of human HOP62 cells after 48 hrs by SRB assay; settings: HOP-62, 48 h

COc1ccc(NC(=O)n2nc(N)c3ccccc32)cc1OC
GI50 [1]: > 100 µM
GI50 [2]: 21.1 µM
GI50 [3]: 45.5 µM
GI50 [4]: 27.9 µM
GI50 [5]: 53.6 µM
GI50 [6]: 37.6 µM
GI50 [7]: 34.9 µM
GI50 [8]: 34.5 µM
GI50 [9]: 24.6 µM
GI50 [10]: > 100 µM
GI50 [11]: 61.7 µM
GI50 [12]: 52.3 µM
GI50 [13]: 39.4 µM
GI50 [14]: 73.1 µM
GI50 [15]: 95.2 µM
GI50 [16]: > 100 µM
GI50 [17]: 36.7 µM
GI50 [18]: 73.6 µM
GI50 [19]: 37.2 µM
GI50 [20]: 35.5 µM
GI50 [21]: 37.6 µM
GI50 [22]: 48.2 µM
GI50 [23]: > 100 µM
GI50 [24]: > 100 µM
GI50 [25]: > 100 µM
GI50 [26]: 28.5 µM
GI50 [27]: 45.8 µM
GI50 [28]: 95.9 µM
GI50 [29]: 30.6 µM
GI50 [30]: > 100 µM
GI50 [31]: 33 µM
GI50 [32]: 58.3 µM
GI50 [33]: 64.9 µM
GI50 [34]: 27.9 µM
GI50 [35]: 63.2 µM
GI50 [36]: 92.4 µM
GI50 [37]: 83.5 µM
GI50 [38]: 43.5 µM
GI50 [39]: 49.6 µM
GI50 [40]: 92 µM
GI50 [41]: 29.3 µM
GI50 [42]: > 100 µM
GI50 [43]: 39.7 µM
GI50 [44]: 30.3 µM
GI50 [45]: 67.9 µM
GI50 [46]: 41.2 µM
GI50 [47]: 83.1 µM
GI50 [48]: > 100 µM
GI50 [49]: 29.5 µM
GI50 [50]: 44.1 µM
GI50 [51]: 54.1 µM
GI50 [52]: > 100 µM
GI50 [53]: 61.1 µM
GI50 [54]: 18.1 µM
GI50 [55]: 49.3 µM
GI50 [56]: 25.9 µM
GI50 [57]: 85.9 µM
GI50 [58]: 43.3 µM
GI50 [59]: 75.2 µM

COc1ccc(NC(=O)Nc2n[nH]c3ccccc23)cc1
GI50 [1]: > 100 µM
GI50 [2]: > 100 µM
GI50 [3]: > 100 µM
GI50 [4]: > 100 µM
GI50 [5]: > 100 µM
GI50 [6]: > 100 µM
GI50 [7]: > 100 µM
GI50 [8]: > 100 µM
GI50 [9]: > 100 µM
GI50 [10]: > 100 µM
GI50 [11]: > 100 µM
GI50 [12]: > 100 µM
GI50 [13]: > 100 µM
GI50 [14]: > 100 µM
GI50 [15]: > 100 µM
GI50 [16]: > 100 µM
GI50 [17]: 59.6 µM
GI50 [18]: > 100 µM
GI50 [19]: > 100 µM
GI50 [20]: > 100 µM
GI50 [21]: > 100 µM
GI50 [22]: > 100 µM
GI50 [23]: > 100 µM
GI50 [24]: > 100 µM
GI50 [25]: > 100 µM
GI50 [26]: > 100 µM
GI50 [27]: > 100 µM
GI50 [28]: > 100 µM
GI50 [29]: > 100 µM
GI50 [30]: > 100 µM
GI50 [31]: 100 µM
GI50 [32]: > 100 µM
GI50 [33]: > 100 µM
GI50 [34]: > 100 µM
GI50 [35]: > 100 µM
GI50 [36]: > 100 µM
GI50 [37]: > 100 µM
GI50 [38]: > 100 µM
GI50 [39]: > 100 µM
GI50 [40]: > 100 µM
GI50 [41]: > 100 µM
GI50 [42]: > 100 µM
GI50 [43]: > 100 µM
GI50 [44]: > 100 µM
GI50 [45]: > 100 µM
GI50 [46]: > 100 µM
GI50 [47]: > 100 µM
GI50 [48]: > 100 µM
GI50 [49]: > 100 µM
GI50 [50]: > 100 µM
GI50 [51]: > 100 µM
GI50 [52]: > 100 µM
GI50 [53]: > 100 µM
GI50 [54]: > 100 µM
GI50 [55]: > 100 µM
GI50 [56]: > 100 µM
GI50 [57]: > 100 µM
GI50 [58]: > 100 µM
GI50 [59]: > 100 µM
